The source of these data is patent US20260034222A1, “HYDROGEL COMPOSITION FOR THE TREATMENT OF PERITONEAL DISEASES” (UPyTher B.V., priority 2023, published 2026).

The conditions of series [1]: in vivo; cited from earlier work.
Series [2] can be described thus: TLR-agonist release from UPy-PEG hydrogels. The note with it: Polymer 6, 6 and 10 wt %, 0.5 mM MEDI9197 (FIG. 11B). It counts as physicochemical. As to the method: The TLR-agonist resiquimod (synonym R848) was loaded from a stock solution (50 mM in DMSO) to 1.27 mM in the hydrogel. The TLR-agonist telratolimod (synonym MEDI9197) was loaded from a stock solution (10 mM in DMSO) to 0.5 mM in the hydrogel.
The drug loaded solution (100 μL) was transferred to a Millicell insert, which was placed in a 24-wells plate filled with PBS pH 7.4 (700 μL). At set time points the PBS was refreshed and the removed PBS was analyzed for R848 content UV absorbance at 320 nm. For MEDI9197, PBS was substituted for a volatile ammonium carbonate buffer and a HPLC-MS method was used. Release experiments were performed with n=3.

The nature of series [3]: Mitomycin C release from UPy-PEG hydrogels. The series is classed as physicochemical. On the procedure: Mitomycin C was loaded from a stock solution (52 mM in DMSO) to 0.52 mM in the hydrogel solution. The drug loaded solution (100 μL) was transferred to a Millicell insert, which was placed in a 24-wells plate filled with PBS pH 7.4 (600 μL). At set time points the PBS was refreshed and the removed PBS was analyzed for drug content UV absorbance at 363 nm. Release experiments were performed with n=3.

Series [4] concerns patients. The note with it: dosing regimens of 35 mg/m2; cited from earlier work.
The subject of series [5] is tumor cell lines. The note with it: cited from earlier work.
Series [6] is described as follows: Drug release from thermoreversible RTGel hydrogel. It counts as physicochemical. The note with it: 0.4 mM, PBS pH 7.4 (FIG. 10). As to the method: RTGel hydrogel was formulated using the following ingredients and quantities:
Mitomycin C and chol-MMC were loaded from a stock solution (30 mM in DMSO) to 0.4 mM in the hydrogel solution. The drug loaded solution (100 μL) was cooled and transferred to a Millicell insert, which was placed in a 24-wells plate filled with PBS pH 7.4 (600 μL). At set time points the PBS was refreshed and the removed PBS was analyzed for drug content UV absorbance at 363 nm. Release experiments were performed with n=3.

The test system of series [7] is mice with peritoneal metastases. The note with it: intraperitoneal lavage for 90 minutes versus 60 minutes; cited from earlier work.
Series [8] is described as follows: Mitomycin C and VX970 combined release from hydrogel. The note with it: Polymer 7, 5 wt %, 12 μg/ml VX970 with 0.52 mM MMC (FIG. 7). The series is classed as physicochemical. On the procedure:
Mitomycin C (MMC) was loaded from a stock solution (52 mM in DMSO) to 0.52 mM in the hydrogel solution. VX970 was loaded from a stock solution (1.2 mg/ml in DMSO) to 12 μg/ml. The drug loaded solution (100 μL) was transferred to a Millicell insert, which was placed in a 24-wells plate filled with PBS pH 7.4 (700 μL). At set time points the PBS was refreshed and the removed PBS was analyzed for MMC content by UV absorbance at 363 nm. For VX970, a HPLC-MS/MS method was used (Kiesel et al.). Release experiments were performed with n=3.

For series [9] the following is noted: in words; cited from earlier work.

For `CC(=O)O[C@H]1C(=O)[C@@]2(C)[C@H]([C@H](OC(=O)c3ccccc3)[C@]3(O)C[C@H](OC(=O)[C@H](O)[C@@H](NC(=O)c4ccccc4)c4ccccc4)C(C)=C1C3(C)C)[C@]1(OC(C)=O)CO[C@@H]1C[C@@H]2O` [paclitaxel], the “clearance from the peritoneal cavity” value in [1] is reported as “cleared in less than day”.
On to `CCCCCCCCCCCCCCCCCC(=O)NCCCCOn1c(CCCC)nc2c(N)nc3ccccc3c21` [MEDI9197, telratolimod], for which, in series [2], the “release rate relative to comparator” value is reported as “released slower than MMC”.
For the molecule `CO[C@@]12[C@H](COC(N)=O)C3=C(C(=O)C(C)=C(N)C3=O)N1C[C@@H]1N[C@@H]12` [Mitomycin C], the “duration of sustained mitomycin C release” value in series [3] (polymer 6, 6, 7, 8 wt %, 0.52 mM, PBS pH 7.4 (FIG. 6)) was in the range of 1 to 2 days. Besides, the “dependence of drug release on polymer density” value in series [3] (polymer 6, 6, 7 or 8 wt %) is on record as “not dependent on the polymer density”. The “effect of higher precursor pH on burst release” value in series [3] (polymer 6, precursor pH 8.5, 9.0 or 9.5) is “did not give rise to an increased burst release”. For the same molecule, the “patients who developed severe bone marrow suppression” value in series [4] is 28%. In addition, the “concentration required to kill 90% of the cells” value in series [5] (exposure time more than 10 hours) was 0.1 µg/mL. Further, the “concentration needed to kill 90% of the cells in culture” value in series [5] (exposure time shorter than one hour) was 5 µg/mL. The “half-life in the peritoneal cavity” value in series [1] was 1 to 1.5 h. Further, the “time of release from Pluronic-based RTGel hydrogel” value in [6] lay within 1 to 2 days. Further, the survival entry in [7] is reported as “better survival”.
In the case of `CC(=O)O[C@@]12CO[C@@H]1C[C@H](O)[C@@]1(C)C(=O)[C@H](O)C3=C(C)[C@@H](OC(=O)[C@H](O)[C@@H](NC(=O)OC(C)(C)C)c4ccccc4)C[C@@](O)([C@@H](OC(=O)c4ccccc4)[C@H]21)C3(C)C` [docetaxel], the “clearance from the peritoneal cavity” value in series [1] is reported as “cleared in less than day”.
For `CNCc1ccc(-c2cc(-c3nc(-c4ccc(S(=O)(=O)C(C)C)cc4)cnc3N)on2)cc1` [VX-970, berzosertib], the “release rate relative to MMC” value in series [8] is “released slower than MMC”. The solubility in water entry in [9] was “insoluble in water”.
